Like-named read-outs stand apart in the source and are kept apart here.
Assay: Fluorescence properties and quantum yield measurements of the BAA library
Assay type: physicochemical
Design: FWHM (full-width-at half max): unit not given here
Procedure: General Instruments. Synthesized sample purification was performed with an Agilent 1260 Infinity HPLC utilizing a C18 column (150mm×21.2 mm). MS (HRMS, ESI) spectra data was collected with an Agilent 6244 TOF LC/MS with diode array detector VL+ and C18 column (4.6 mm×50 mm). Absorbance and fluorescence data were measured on a SpectraMax M5 Microplate reader. NMR spectra, ^1H and ^13C, were recorded on a Bruker ARK400 spectrometer. BAA microscopy screening in cells for organelle specificity and signal-to-background ratio was completed with an Axio Zeiss Light Microscope and 63× oil immersion objective.
Fluorescence Properties and Quantum Yield Measurements. Spectroscopic characterizations were performed in anhydrous DMSO in polystyrene 96 well plate. Analysis included the maximum absorbance wavelength, maximum fluorescence emission wavelength, full-width-at half max, and quantum yield. Quantum yields (φfl) were determined by comparing the area under the emission spectrum of the BAA compound to a reference fluorophore solution at three concentrations using equation 1, where Grad represents the gradient from the plots of integrated fluorescence intensity vs absorbance at three concentrations and q is the refractive index of the solvent. Fluorescein in 0.1 M NaOH (φfl=0.91)^3 was the reference for samples with a max absorbance up to 510 nm, where an excitation of 470 nm was used with the emission integrated between 490 to 800 nm. Rhodamine B in ethanol (φfl=0.70) was the reference for samples with a max absorbance between 511-595 nm, where an excitation of 525 nm was used with the emission integrated between 545 to 800 nm. Cresyl violet in methanol (φfl=0.54)^4 was the reference for samples with a max absorbance above 595 nm, where an excitation of 570 nm was used with the emission integrated between 590 to 800 nm.

[1] = anhydrous DMSO, polystyrene 96 well plate
[2] = anhydrous DMSO, relative to reference fluorophore at three concentrations

Structure (SMILES)	Stokes Shift (anhydrous DMSO)	λmax ABS [1]	λmax EM [1]	FWHM (full-width-at half max) (anhydrous DMSO, emission)	φfl (quantum yield) [2]	FWHM (full-width-at half max)	Stokes Shift	λmax ABS	λmax EM	φfl (quantum yield)
CC1=CC(/C=C/c2ccc(Cl)c(F)c2)=[N+]2C1=Cc1ccc(CCC(=O)O)n1[B-]2(F)F [BAA-54a]	8 nm	573 nm	581 nm	46	0.04					
CC1=CC(C=Cc2ccc(-c3cccs3)nc2)=[N+]2C1=Cc1ccc(C(=Cc3ccc(-c4cccs4)nc3)CC(=O)O)n1[B-]2(F)F [BAA-56b]	11 nm	586 nm	597 nm	35	0.15					
COc1cc(/C=C(/CC(=O)O)c2ccc3n2[B-](F)(F)[N+]2=C(/C=C/c4cc(I)c(OC)c(OC)c4)C=C(C)C2=C3)cc(I)c1OC [BAA-3b]	13 nm	574 nm	587 nm	34	0.70					
CC1=CC(C=Cc2ccc(-c3cccnc3)cc2)=[N+]2C1=Cc1ccc(CCC(=O)O)n1[B-]2(F)F [BAA-37a]	10 nm	568 nm	578 nm	55	0.54					
CC1=CC(C=Cc2ccc(OCc3sccc3C#N)cc2)=[N+]2C1=Cc1ccc(C(=Cc3ccc(OCc4sccc4C#N)cc3)CC(=O)O)n1[B-]2(F)F [BAA-36b]	13 nm	579 nm	592 nm	37	0.35					
COc1ccc(/C=C/C2=[N+]3C(=Cc4ccc(CCC(=O)O)n4[B-]3(F)F)C(C)=C2)c2ccccc12 [BAA-8a]	29 nm	594 nm	623 nm	61	0.50					
CC1=CC(C=Cc2cc(F)ccc2O)=[N+]2C1=Cc1ccc(C(=Cc3cc(F)ccc3O)CC(=O)O)n1[B-]2(F)F [BAA-31b]	12 nm	576 nm	588 nm	34	0.28					
CC1=CC(C=Cc2cnn(-c3ccccc3C)c2C)=[N+]2C1=Cc1ccc(CCC(=O)O)n1[B-]2(F)F [BAA-57a]	16 nm	574 nm	590 nm	45	0.75					
COc1ccc(C=O)cc1OCCOc1cc(C=CC2=[N+]3C(=Cc4ccc(CCC(=O)O)n4[B-]3(F)F)C(C)=C2)ccc1OC [BAA-74a]	18 nm	584 nm	602 nm	59	0.15					
CC1=CC(/C=C/c2cccc(I)c2)=[N+]2C1=Cc1ccc(/C(=C\c3cccc(I)c3)CC(=O)O)n1[B-]2(F)F [BAA-24b]	9 nm	570 nm	579 nm	32	0.29					
CC1=CC(C=Cc2ccc(-c3ccc(F)c(F)c3)nc2)=[N+]2C1=Cc1ccc(CCC(=O)O)n1[B-]2(F)F [BAA-72a]	10 nm	580 nm	590 nm	31	0.40					
CC1=CC(C=Cc2ccc(-c3cc(Cl)cc(Cl)c3)nc2)=[N+]2C1=Cc1ccc(CCC(=O)O)n1[B-]2(F)F [BAA-69a]	12 nm	577 nm	589 nm	30	0.85					
CC1=CC(C=Cc2ccc(-c3ccc(OC(F)(F)F)cc3)nc2)=[N+]2C1=Cc1ccc(CCC(=O)O)n1[B-]2(F)F [BAA-71a]	9 nm	580 nm	589 nm	32	0.19					
COc1ccc2c(c1)C(/C=C/C1=[N+]3C(=Cc4ccc(CCC(=O)O)n4[B-]3(F)F)C(C)=C1)C=N2 (stereo not drawn) [BAA-6a]	34 nm	609 nm	643 nm	64	0.18					
CC1=CC(/C=C/c2ccc(CC(C)C)s2)=[N+]2C1=Cc1ccc(CCC(=O)O)n1[B-]2(F)F [BAA-14a]	13 nm	594 nm	607 nm	70	0.44					
CC1=CC(C=Cc2ccc(OC(=O)c3ccc(Cl)cc3)cc2)=[N+]2C1=Cc1ccc(CCC(=O)O)n1[B-]2(F)F [BAA-43a]	10 nm	569 nm	579 nm	31	0.45					
CC1=CC(/C=C/c2ccccc2N2CCN(C)CC2)=[N+]2C1=Cc1ccc(CCC(=O)O)n1[B-]2(F)F [BAA-4a]	19 nm	581 nm	600 nm	56	0.43					
CC1=CC(C=Cc2cnc(-c3ccc(Cl)cc3)s2)=[N+]2C1=Cc1ccc(C(=Cc3cnc(-c4ccc(Cl)cc4)s3)CC(=O)O)n1[B-]2(F)F [BAA-34b]	11 nm	570 nm	581 nm	31	0.96					
CC1=CC(C=Cc2ccc(-c3cccs3)s2)=[N+]2C1=Cc1ccc(C(=Cc3ccc(-c4cccs4)s3)CC(=O)O)n1[B-]2(F)F [BAA-60b]	16 nm	588 nm	604 nm	37	0.47					
CCSc1ncc(/C=C/C2=[N+]3C(=Cc4ccc(CCC(=O)O)n4[B-]3(F)F)C(C)=C2)cn1 [BAA-20a]	8 nm	577 nm	585 nm	31	0.15					
CC1=CC(C=Cc2ccc(OCCBr)cc2)=[N+]2C1=Cc1ccc(CCC(=O)O)n1[B-]2(F)F [BAA-73a]	14 nm	579 nm	593 nm	46	0.55					
CC1=CC(C=Cc2ccc(N(CCC#N)CCC#N)cc2)=[N+]2C1=Cc1ccc(CCC(=O)O)n1[B-]2(F)F [BAA-75a]	49 nm	614 nm	663 nm	91	0.08					
CC1=CC(C=Cc2ccc(Cl)nc2)=[N+]2C1=Cc1ccc(CCC(=O)O)n1[B-]2(F)F [BAA-39a]	51 nm	606 nm	657 nm	79	0.19					
CC1=CC(C=Cc2cc(-n3ccnc3)ccc2C)=[N+]2C1=Cc1ccc(CCC(=O)O)n1[B-]2(F)F [BAA-50a]	10 nm	571 nm	581 nm	33	0.28					
CC1=CC(/C=C/c2ccc(-c3ccccc3)cc2)=[N+]2C1=Cc1ccc(CCC(=O)O)n1[B-]2(F)F [BAA-17a]						42	12 nm	579 nm	591 nm	0.59
COc1ccc(/C=C/C2=[N+]3C(=Cc4ccc(CCC(=O)O)n4[B-]3(F)F)C(C)=C2)c(OC)c1C [BAA-7a]	18 nm	582 nm	600 nm	63	0.29					
CC1=CC(C=Cc2ccc(OCc3ccc([N+](=O)[O-])cc3)cc2)=[N+]2C1=Cc1ccc(C(=Cc3ccc(OCc4ccc([N+](=O)[O-])cc4)cc3)CC(=O)O)n1[B-]2(F)F [BAA-78b]	14 nm	579 nm	593 nm	39	0.37					
CC1=CC(C=Cc2ccc(OCc3ccc([N+](=O)[O-])cc3)cc2)=[N+]2C1=Cc1ccc(CCC(=O)O)n1[B-]2(F)F [BAA-78a]	11 nm	581 nm	592 nm	46	0.19					
CC1=CC(C=Cc2ccc(-c3ccc(Cl)s3)nc2)=[N+]2C1=Cc1ccc(CCC(=O)O)n1[B-]2(F)F [BAA-66a]	11 nm	587 nm	598 nm	34	0.28					
COc1cc(/C=C/C2=[N+]3C(=Cc4ccc(CCC(=O)O)n4[B-]3(F)F)C(C)=C2)ccc1OCc1ccc(F)cc1 [BAA-22a]	17 nm	585 nm	602 nm	49	0.39					
